The data set in a line: activity coefficient (dimensionless); of the first substance listed, at infinite dilution; xn = mol fraction of the nth substance listed. The settings on record: 101 kPa, Liquid, Chromatography, x1 = 0.

± gives the expanded uncertainty stated by the source.

As for `C1CCCCC1` [cyclohexane] + CCCC[N+]1(C)CCOCC1.N#C[C-](C#N)C#N, the activity coefficient reads like this: (318.15 K) 22.6 ± 1.5; (328.15 K) 20.8 ± 1.4; (338.15 K) 19.3 ± 1.3; (348.15 K) 18 ± 1.2; (358.15 K) 16.9 ± 1.2; (368.15 K) 16 ± 1.1.
On to `C1=CCCCC1` [cyclohexene] + CCCC[N+]1(C)CCOCC1.N#C[C-](C#N)C#N, for which the activity coefficient turned out to be 9.44 ± 0.64 (318.15 K); 9.08 ± 0.62 (328.15 K); 8.71 ± 0.59 (338.15 K); 8.46 ± 0.58 (348.15 K); 8.16 ± 0.56 (358.15 K); 7.92 ± 0.54 (368.15 K).
Take `C1CCCCCCC1` [cyclooctane] + CCCC[N+]1(C)CCOCC1.N#C[C-](C#N)C#N: the activity coefficient runs as follows: (318.15 K) 37 ± 2.5; (328.15 K) 34.1 ± 2.3; (338.15 K) 31.2 ± 2.1; (348.15 K) 29.1 ± 2; (358.15 K) 27 ± 1.8; (368.15 K) 25.1 ± 1.7.
In the case of `C1CCCC1` [cyclopentane] + CCCC[N+]1(C)CCOCC1.N#C[C-](C#N)C#N, the activity coefficient (318.15 K) is 14.7 ± 1; the activity coefficient (328.15 K) turned out to be 13.7 ± 0.9; the activity coefficient (338.15 K) is 12.8 ± 0.9; the activity coefficient (348.15 K) amounted to 12.1 ± 0.8; the activity coefficient (358.15 K) amounted to 11.4 ± 0.8; the activity coefficient (368.15 K) stood at 10.9 ± 0.7.
For the compound `CCCCCCCCCC` [decane] + CCCC[N+]1(C)CCOCC1.N#C[C-](C#N)C#N, the activity coefficient is, setting by setting: (318.15 K) 289 ± 20; (328.15 K) 251 ± 17; (338.15 K) 224 ± 15; (348.15 K) 202 ± 14; (358.15 K) 183 ± 13; (368.15 K) 166 ± 11.
For the compound `CCOCC` [diethyl ether] + CCCC[N+]1(C)CCOCC1.N#C[C-](C#N)C#N, the activity coefficient is, setting by setting: (318.15 K) 5.39 ± 0.37; (328.15 K) 5.33 ± 0.36; (338.15 K) 5.27 ± 0.36; (348.15 K) 5.24 ± 0.36; (358.15 K) 5.21 ± 0.36; (368.15 K) 5.16 ± 0.35.
For `CC(C)OC(C)C` [diisopropyl ether] + CCCC[N+]1(C)CCOCC1.N#C[C-](C#N)C#N, the activity coefficient stood at 17.8 ± 1.2 (318.15 K); 17.4 ± 1.2 (328.15 K); 16.8 ± 1.1 (338.15 K); 16.5 ± 1.1 (348.15 K); 16 ± 1.1 (358.15 K); 15.6 ± 1.1 (368.15 K).
On to `CCCOCCC` [dipropyl ether] + CCCC[N+]1(C)CCOCC1.N#C[C-](C#N)C#N, for which the activity coefficient (318.15 K) stood at 16.4 ± 1.1; the activity coefficient (328.15 K) amounted to 15.9 ± 1.1; the activity coefficient (338.15 K) turned out to be 15.4 ± 1.1; the activity coefficient (348.15 K) was found to be 14.9 ± 1; the activity coefficient (358.15 K) turned out to be 14.4 ± 1; the activity coefficient (368.15 K) was 13.9 ± 1.
Turning to `CCO` [ethanol] + CCCC[N+]1(C)CCOCC1.N#C[C-](C#N)C#N, the activity coefficient stood at 1.26 ± 0.08 (318.15 K); 1.19 ± 0.08 (328.15 K); 1.12 ± 0.07 (338.15 K); 1.06 ± 0.07 (348.15 K); 1.01 ± 0.06 (358.15 K); 0.965 ± 0.061 (368.15 K).
With `CCOC(C)=O` [ethyl acetate] + CCCC[N+]1(C)CCOCC1.N#C[C-](C#N)C#N, the activity coefficient was found to be 1.88 ± 0.13 (318.15 K); 1.9 ± 0.13 (328.15 K); 1.92 ± 0.13 (338.15 K); 1.93 ± 0.13 (348.15 K); 1.96 ± 0.13 (358.15 K); 1.98 ± 0.13 (368.15 K).
Turning to `CCc1ccccc1` [ethylbenzene] + CCCC[N+]1(C)CCOCC1.N#C[C-](C#N)C#N, the activity coefficient (318.15 K) came to 3.74 ± 0.25; the activity coefficient (328.15 K) turned out to be 3.74 ± 0.25; the activity coefficient (338.15 K) worked out at 3.75 ± 0.26; the activity coefficient (348.15 K) is 3.75 ± 0.26; the activity coefficient (358.15 K) turned out to be 3.75 ± 0.26; the activity coefficient (368.15 K) turned out to be 3.75 ± 0.26.
For `CCCCCCC` [heptane] + CCCC[N+]1(C)CCOCC1.N#C[C-](C#N)C#N, the activity coefficient by setting is: (318.15 K) 84 ± 5.8; (328.15 K) 76.8 ± 5.3; (338.15 K) 69.6 ± 4.8; (348.15 K) 63.3 ± 4.3; (358.15 K) 58.7 ± 4; (368.15 K) 53.7 ± 3.7.
As for `C=CCCCC` [hex-1-ene] + CCCC[N+]1(C)CCOCC1.N#C[C-](C#N)C#N, the activity coefficient (318.15 K) amounted to 22.6 ± 1.5; the activity coefficient (328.15 K) came to 21.3 ± 1.5; the activity coefficient (338.15 K) came to 20 ± 1.4; the activity coefficient (348.15 K) is 19.1 ± 1.3; the activity coefficient (358.15 K) amounted to 18.2 ± 1.2; the activity coefficient (368.15 K) turned out to be 17.4 ± 1.2.
`CCCCCC` [hexane] + CCCC[N+]1(C)CCOCC1.N#C[C-](C#N)C#N: the activity coefficient was 56.5 ± 3.9 (318.15 K); 51.1 ± 3.5 (328.15 K); 46.7 ± 3.2 (338.15 K); 43.2 ± 3 (348.15 K); 40.3 ± 2.8 (358.15 K); 37.2 ± 2.5 (368.15 K).
With `CO` [methanol] + CCCC[N+]1(C)CCOCC1.N#C[C-](C#N)C#N, the activity coefficient was determined as 0.825 ± 0.053 (318.15 K); 0.79 ± 0.051 (328.15 K); 0.762 ± 0.05 (338.15 K); 0.729 ± 0.048 (348.15 K); 0.704 ± 0.047 (358.15 K); 0.677 ± 0.046 (368.15 K).
Take `CCCC(=O)OC` [methyl butanoate] + CCCC[N+]1(C)CCOCC1.N#C[C-](C#N)C#N: the activity coefficient is, setting by setting: (318.15 K) 2.42 ± 0.16; (328.15 K) 2.46 ± 0.17; (338.15 K) 2.49 ± 0.17; (348.15 K) 2.51 ± 0.17; (358.15 K) 2.54 ± 0.17; (368.15 K) 2.56 ± 0.17.
On to `COC(C)=O` [methyl ethanoate] + CCCC[N+]1(C)CCOCC1.N#C[C-](C#N)C#N, for which the activity coefficient is, setting by setting: (318.15 K) 1.2 ± 0.08; (328.15 K) 1.23 ± 0.08; (338.15 K) 1.24 ± 0.08; (348.15 K) 1.26 ± 0.08; (358.15 K) 1.29 ± 0.08; (368.15 K) 1.3 ± 0.08.
As for `CCC(=O)OC` [methyl propanoate] + CCCC[N+]1(C)CCOCC1.N#C[C-](C#N)C#N, the activity coefficient was 1.64 ± 0.11 (318.15 K); 1.67 ± 0.11 (328.15 K); 1.7 ± 0.11 (338.15 K); 1.73 ± 0.12 (348.15 K); 1.76 ± 0.12 (358.15 K); 1.79 ± 0.12 (368.15 K).
For the compound `CC1CCCCC1` [methylcyclohexane] + CCCC[N+]1(C)CCOCC1.N#C[C-](C#N)C#N, the activity coefficient amounted to 35.2 ± 2.4 (318.15 K); 32.3 ± 2.2 (328.15 K); 29.7 ± 2 (338.15 K); 27.6 ± 1.9 (348.15 K); 25.7 ± 1.8 (358.15 K); 24 ± 1.6 (368.15 K).
For the compound `CCCCCCCCC` [nonane] + CCCC[N+]1(C)CCOCC1.N#C[C-](C#N)C#N, the activity coefficient was determined as 187 ± 13 (318.15 K); 168 ± 12 (328.15 K); 151 ± 10 (338.15 K); 137 ± 9 (348.15 K); 126 ± 9 (358.15 K); 115 ± 8 (368.15 K).
For the compound `C=CCCCCCC` [oct-1-ene] + CCCC[N+]1(C)CCOCC1.N#C[C-](C#N)C#N, the activity coefficient is, setting by setting: (318.15 K) 52.7 ± 3.6; (328.15 K) 49.1 ± 3.4; (338.15 K) 45.7 ± 3.1; (348.15 K) 43 ± 2.9; (358.15 K) 40.6 ± 2.8; (368.15 K) 38.1 ± 2.6.
With `CCCCCCCC` [octane] + CCCC[N+]1(C)CCOCC1.N#C[C-](C#N)C#N, the activity coefficient reads like this: (318.15 K) 125 ± 9; (328.15 K) 113 ± 8; (338.15 K) 102 ± 7; (348.15 K) 93.4 ± 6.4; (358.15 K) 86.5 ± 5.9; (368.15 K) 78.6 ± 5.4.
With `CCCC(C)=O` [pentan-2-one] + CCCC[N+]1(C)CCOCC1.N#C[C-](C#N)C#N, the activity coefficient by setting is: (318.15 K) 1.44 ± 0.09; (328.15 K) 1.47 ± 0.1; (338.15 K) 1.49 ± 0.1; (348.15 K) 1.5 ± 0.1; (358.15 K) 1.53 ± 0.1; (368.15 K) 1.54 ± 0.1.
`CCC(=O)CC` [pentan-3-one] + CCCC[N+]1(C)CCOCC1.N#C[C-](C#N)C#N: the activity coefficient reads like this: (318.15 K) 1.42 ± 0.09; (328.15 K) 1.44 ± 0.09; (338.15 K) 1.47 ± 0.1; (348.15 K) 1.49 ± 0.1; (358.15 K) 1.51 ± 0.1; (368.15 K) 1.54 ± 0.1.
As for `CCCCC` [pentane] + CCCC[N+]1(C)CCOCC1.N#C[C-](C#N)C#N, the activity coefficient runs as follows: (318.15 K) 39.7 ± 2.7; (328.15 K) 35.5 ± 2.4; (338.15 K) 32.2 ± 2.2; (348.15 K) 29.8 ± 2; (358.15 K) 27.7 ± 1.9; (368.15 K) 26.2 ± 1.8.
For `CCCO` [propan-1-ol] + CCCC[N+]1(C)CCOCC1.N#C[C-](C#N)C#N, the activity coefficient is, setting by setting: (318.15 K) 1.62 ± 0.11; (328.15 K) 1.52 ± 0.1; (338.15 K) 1.43 ± 0.09; (348.15 K) 1.35 ± 0.09; (358.15 K) 1.29 ± 0.08; (368.15 K) 1.23 ± 0.08.
Regarding `CC(C)O` [propan-2-ol] + CCCC[N+]1(C)CCOCC1.N#C[C-](C#N)C#N, the activity coefficient is, setting by setting: (318.15 K) 1.71 ± 0.11; (328.15 K) 1.59 ± 0.11; (338.15 K) 1.5 ± 0.1; (348.15 K) 1.4 ± 0.09; (358.15 K) 1.33 ± 0.09; (368.15 K) 1.25 ± 0.08.
Turning to `c1ccncc1` [pyridine] + CCCC[N+]1(C)CCOCC1.N#C[C-](C#N)C#N, the activity coefficient runs as follows: (318.15 K) 0.733 ± 0.049; (328.15 K) 0.748 ± 0.049; (338.15 K) 0.758 ± 0.05; (348.15 K) 0.766 ± 0.05; (358.15 K) 0.766 ± 0.05; (368.15 K) 0.788 ± 0.051.
